Laboratory results as given in publication PMC3201940, “A Robust and Rapid Method of Producing Soluble, Stable, and Functional G-Protein Coupled Receptors” (PLoS ONE, 2011).

Biological target: T1, hVN1R1 (Homo sapiens, UniProt Q9GZP7)
T1 construct: gene VN1R1
T1 sequence (Q9GZP7 1-353): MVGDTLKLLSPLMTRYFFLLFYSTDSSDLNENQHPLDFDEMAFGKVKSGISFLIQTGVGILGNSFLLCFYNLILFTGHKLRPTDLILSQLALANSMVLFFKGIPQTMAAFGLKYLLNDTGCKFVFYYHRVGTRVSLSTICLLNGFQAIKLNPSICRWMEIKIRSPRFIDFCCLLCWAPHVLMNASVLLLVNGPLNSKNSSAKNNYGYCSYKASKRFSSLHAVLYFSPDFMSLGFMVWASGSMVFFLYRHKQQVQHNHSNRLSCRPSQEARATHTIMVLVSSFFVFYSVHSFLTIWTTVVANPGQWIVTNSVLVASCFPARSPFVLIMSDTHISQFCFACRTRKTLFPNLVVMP
Test: label-free microscale thermophoresis (tryptophan fluorescence), purified receptor, heat-denatured control
Format: binding

C=C(C)C1CC=C(C)C(O)C1 (mixture of isomers) [carveol]
EC50: 3.5 ± 0.7 µM
